In patent publication US10308608B2, “Histone deacetylase inhibitors” (BIOMARIN PHARMACEUTICAL INC., priority 2015, dated 2019):
Where a name gives a salt, the structure may show the parent alone. Read-outs that look alike come from different tables or passages of the source.

Test system: Frataxin (FXN) mRNA
Test: Effect of HDAC inhibitors on frataxin (FXN) mRNA expression, qRT-PCR in compound-treated iPSC derived neuronal cells
Type: cell-based
Conditions: for fold induction at 0.625 µM: iPSC, 24 h
Method: Effect of HDAC Inhibitors on Frataxin (FXN) mRNA Expression
Method: mRNA quantification of compound-treated iPSC derived neuronal cells Neuronal stem cells were cultured in Neurobasal A medium (Life technologies #10888022) supplemented with N2, B27 (Life technologies #17502-048 and #17504-044), L-glutamine (Life technologies #25030081), supplemented with 20 ng/ml EGF (R&D Systems #236-EG) and 20 ng/ml bFGF (BioPioneer # HRP-0011). Neuronal differentiation was initiated by removing growth factors and culturing cells in Neurobasal A with N2 and B27. Cells were allowed to differentiate for 16 days. HDAC inhibitory compound was then added and incubate for 24 h. RNA isolation was performed using the RNeasy Plus mini kit (QIAgen #74134) using a QIAcube instrument per manufacturer's instructions. qRT-PCR was performed using qScript One-Step SYBR Green qRT-PCR Kit (Quanta Biosciences 170-8893BR) with the following conditions: 20 minutes at 50° C., 5 minutes at 95° C., and then 40 cycles of 20 seconds at 95° C., 20 seconds at 55° C., 30 seconds at 72° C. The primer sequences to detect expression of FXN were: 5′-[…]-3′ and 5′-[…]-3′.
The data for the following compounds, for FXN mRNA fold induction at a compound concentration of 0.625 μM are shown in Table 1, where A<1, 1<B<2, 2<C<3, 3<D<5, E>5.

[1] = compound concentration of 0.625 μM, 24 h incubation, read-out: FXN mRNA fold induction
[2] = read-out: FXN mRNA fold induction, compound concentration of 0.625 μM, 24 h incubation

Compound | fold induction at 0.625 µM [1] | further results
Nc1ccccc1NC(=O)c1ccc(NC2CN(CC3CC3)C2)cc1 [Compound 91, N-(2-aminophenyl)-4-((1-(cyclopropylmethyl)azetidin-3-yl)amino)benzamide trihydrochloride] | 1 to 2 | 
CC(C)(C)CN1CC[C@@H](Oc2ccc(C(=O)Nc3ccccc3N)cc2)C1 [Compound 61, (R)-N-(2-aminophenyl)-4-((1-neopentylpyrrolidin-3-yl)oxy)benzamide] | 1 to 2 | 
Nc1ccccc1NC(=O)c1ccc(NC2CC3CCC(C2)N3CC2CCCCC2)cc1 (stereo not shown) [Compound 122, N-(2-aminophenyl)-4-((8-(cyclohexylmethyl)-8-azabicyclo[3.2.1]octan-3-yl)amino)benzamide] |  | fold induction at 0.625 µM [2]: 2 to 3
Nc1ccccc1NC(=O)c1ccc(O[C@@H]2CCN(CC3CC3)C2)cc1 [Compound 62, (R)-N-(2-aminophenyl)-4-((1-(cyclopropylmethyl)pyrrolidin-3-yl)oxy)benzamide dihydrochloride] | 1 to 2 | 
Nc1ccccc1NC(=O)c1ccc(NC2CCN(C3COC3)CC2)cc1 [Compound 141, N-(2-aminophenyl)-4-((1-(oxetan-3-yl)piperidin-4-yl)amino)benzamide] | 1 to 2 | 
CC(C)CN1CCCC(Nc2ccc(C(=O)Nc3ccccc3N)cc2)CC1 (stereo not shown) [Compound 80, N-(2-aminophenyl)-4-((1-isobutylazepan-4-yl)amino)benzamide] | 2 to 3 | 
Nc1ccccc1NC(=O)c1ccc(N[C@@H]2CCN(C3CC3)C2)cc1 [Compound 138, (R)-N-(2-aminophenyl)-4-((1-cyclopropylpyrrolidin-3-yl)amino)benzamide trihydrochloride] | 2 to 3 | 
Nc1ccccc1NC(=O)c1ccc(O[C@H]2CCNC2)cc1 [Compound 49, (S)-N-(2-aminophenyl)-4-(pyrrolidin-3-yloxy)benzamide hydrochloride] | 2 to 3 | 
CC(C)(O)CN1CC[C@H](Nc2ccc(C(=O)Nc3ccccc3N)cc2)C1 [Compound 97, (S)-N-(2-aminophenyl)-4-((1-(2-hydroxy-2-methylpropyl)pyrrolidin-3-yl)amino)benzamide] | 1 to 2 | 
CC1(CN2CC(Nc3ccc(C(=O)Nc4ccccc4N)cc3)C2)CC1 [Compound 92, N-(2-aminophenyl)-4-((1-((1-methylcyclopropyl)methyl)azetidin-3-yl)amino)benzamide] | 2 to 3 | 
Nc1ccccc1NC(=O)c1ccc(OC2CC3CCC(C2)N3CC2CC2)cc1 (stereo not shown) [Compound 75, N-(2-aminophenyl)-4-((8-(cyclopropylmethyl)-8-azabicyclo[3.2.1]octan-3-yl)oxy)benzamide dihydrochloride] |  | fold induction at 0.625 µM [2]: 1 to 2
CC(C)CN1CC[C@@H](Nc2ccc(C(=O)Nc3ccccc3N)cc2)C1 [Compound 104, (R)-N-(2-aminophenyl)-4-((1-isobutylpyrrolidin-3-yl)amino)benzamide trihydrochloride] | 2 to 3 | 
CC1(CN2CC[C@H](Oc3ccc(C(=O)Nc4ccccc4N)cc3)C2)CC1 [Compound 55, (S)-N-(2-aminophenyl)-4-((1-((1-methylcyclopropyl)methyl)pyrrolidin-3-yl)oxy)benzamide dihydrochloride] | 2 to 3 | 
CC1(CN2C3CCC2CC(Oc2ccc(C(=O)Nc4ccccc4N)cc2)C3)CC1 (stereo not shown) [Compound 76, N-(2-aminophenyl)-4-((8-((1-methylcyclopropyl)methyl)-8-azabicyclo[3.2.1]octan-3-yl)oxy)benzamide dihydrochloride] |  | fold induction at 0.625 µM [2]: 2 to 3
CC(C)(O)CN1CCC(Oc2ccc(C(=O)Nc3ccccc3N)cc2)CC1(C)C (stereo not shown) [Compound 363, N-(2-aminophenyl)-4-((1-(2-hydroxy-2-methylpropyl)-2,2-dimethylpiperidin-4-yl)oxy)benzamide] | 2 to 3 | 
Nc1ccccc1NC(=O)c1ccc(OC2CN(CC3CC3)C2)cc1 [Compound 46, N-(2-aminophenyl)-4-((1-(cyclopropylmethyl)azetidin-3-yl)oxy)benzamide dihydrochloride] | 1 to 2 | 
CC(C)(O)CN1CCC(Nc2ccc(C(=O)Nc3ccccc3N)cc2)CC1(C)C (stereo not shown) [Compound 369, N-(2-aminophenyl)-4-((1-(2-hydroxy-2-methylpropyl)-2,2-dimethylpiperidin-4-yl)amino)benzamide] | 1 to 2 | 
CN(c1ccc(C(=O)Nc2ccccc2N)cc1)C1CCN(CC(C)(C)O)CC1 [Compound 6, N-(2-aminophenyl)-4-((1-(2-hydroxy-2-methylpropyl)piperidin-4-yl)(methyl)amino) benzamide] |  | fold induction at 0.625 µM [2]: 2 to 3
Nc1ccccc1NC(=O)c1ccc(O[C@@H]2CCCN(CC3CC3)CC2)cc1 [Compound 38B, (R)-N-(2-aminophenyl)-4-((1-(cyclopropylmethyl)azepan-4-yl)oxy)benzamide] | 1 to 2 | 
Nc1ccccc1NC(=O)c1ccc(OC2CCCN(CC3CCCCC3)CC2)cc1 (single isomer, unassigned) [Compound 40B, N-(2-aminophenyl)-4-((1-(cyclohexylmethyl)azepan-4-yl)oxy)benzamide dihydrochloride] |  | FXN mRNA fold induction (compound concentration of 0.625 μM, 24 h incubation, dihydrochloride, 0.625 µM): C (2<C<3)
CC(C)(O)CN1CC(Nc2ccc(C(=O)Nc3ccccc3N)cc2)C1 [Compound 89, N-(2-aminophenyl)-4-((1-(2-hydroxy-2-methylpropyl)azetidin-3-yl)amino)benzamide] | 1 to 2 | 
CCN(c1ccc(C(=O)Nc2ccccc2N)cc1)C1CCN(CC2CC2)CC1 [Compound 26, N-(2-aminophenyl)-4-((1-(cyclopropylmethyl)piperidin-4-yl)(ethyl)amino)benzamide Trihydrochloride] |  | fold induction at 0.625 µM [2]: 2 to 3
Nc1ccccc1NC(=O)c1ccc(NC2CCN(CC3CCCCC3)CC2)cc1 [Compound 114, N-(2-aminophenyl)-4-((1-(cyclohexylmethyl)piperidin-4-yl)amino)benzamide] | 1 to 2 | 
Nc1ccccc1NC(=O)c1ccc(N[C@H]2CCCN(CC3CCCCC3)CC2)cc1 (single isomer, unassigned) [Compound 85B] | 2 to 3 | 
Nc1ccccc1NC(=O)c1ccc(OC2CCCN(CC3CCCCC3)CC2)cc1 (single isomer, unassigned) [Compound 40A, N-(2-aminophenyl)-4-((1-(cyclohexylmethyl)azepan-4-yl)oxy)benzamide dihydrochloride] | 1 to 2 | 
Nc1ccccc1NC(=O)c1ccc(O[C@H]2CCN(CC3CC3)C2)cc1 [Compound 54, (S)-N-(2-aminophenyl)-4-((1-(cyclopropylmethyl)pyrrolidin-3-yl)oxy)benzamide dihydrochloride] | 1 to 2 | 
CC(C)(O)CN1C2CCC1CC(Oc1ccc(C(=O)Nc3ccccc3N)cc1)C2 (stereo not shown) [Compound 73, N-(2-aminophenyl)-4-((8-(2-hydroxy-2-methylpropyl)-8-azabicyclo[3.2.1]octan-3-yl)oxy)benzamide dihydrochloride] |  | fold induction at 0.625 µM [2]: 1 to 2
CC1(CN2CC[C@H](Nc3ccc(C(=O)Nc4ccccc4N)cc3)C2)CC1 [Compound 100, (S)-N-(2-aminophenyl)-4-((1-((1-methylcyclopropyl)methyl)pyrrolidin-3-yl)amino)benzamide] | 1 to 2 | 
